From patent publication US6350585B1, “Reagent for assay of amylase isozyme activity” (priority 1998, dated 2002)

Biological target: T1, P-type amylase (Calibzyme P) (Homo sapiens, UniProt P04746)
T1 construct: purchased International Reagents Corporation Calibzyme P
T1 sequence (P04746 16-511): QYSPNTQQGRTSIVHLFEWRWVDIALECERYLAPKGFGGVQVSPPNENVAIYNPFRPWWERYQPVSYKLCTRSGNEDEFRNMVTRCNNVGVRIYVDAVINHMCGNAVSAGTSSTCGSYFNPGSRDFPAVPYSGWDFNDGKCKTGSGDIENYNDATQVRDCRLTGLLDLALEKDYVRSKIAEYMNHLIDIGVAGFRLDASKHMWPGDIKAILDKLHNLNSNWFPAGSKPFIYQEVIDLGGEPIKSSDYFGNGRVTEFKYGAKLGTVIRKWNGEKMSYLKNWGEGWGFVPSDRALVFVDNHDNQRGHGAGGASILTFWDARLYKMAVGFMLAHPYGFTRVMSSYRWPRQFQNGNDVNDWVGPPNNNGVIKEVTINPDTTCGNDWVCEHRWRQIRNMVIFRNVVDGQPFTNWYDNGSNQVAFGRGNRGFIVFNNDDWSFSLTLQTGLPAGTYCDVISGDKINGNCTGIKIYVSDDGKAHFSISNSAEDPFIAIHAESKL
Assay: amylase isozyme activity assay with sodium azide as activator, P-type amylase sample
Assay type: biochemical
Details: for Percent residual enzyme activity: composition C/D
Procedure: S-type amylase inhibitory antibody 88E8 (manufactured by Roche Diagnostics K.K.) 20 mg/L
S-type amylase inhibitory antibody 66C7 (manufactured by Roche Diagnostics K.K.) 5 mg/L
Substrate (GalG2CNP (Example) or G3CNP (Comparative Example)) 2.6 mM
(2) P-type Amylase (Calibzyme P, Manufactured by International Reagents Corporation)
Each of the above-mentioned samples (0.05 mL) was added to respective reagent C and D (3 mL) and the mixtures were left standing at 37° C. for 3 minutes. Then, change in absorbance at 405 nm was assayed and change in absorbance per minute was calculated.
In the Tables, P is the case where P-type amylase was used as the sample, and S is the case where S-type amylase was used. The relative sensitivity of P and S is based on the change in absorbance of G3CNP as 100, wherein sodium azide was 300 mM.
Percent residual enzyme activity and relative sensitivity were calculated by the following formulas.
Percent residual enzyme activity (%)=(change in absorbance of composition C)/(change in absorbance of composition D)×100
Relative sensitivity (%)=(change in absorbance of composition D)/(change in absorbance of Comparative Example wherein sodium azide was 300 mM)×100

[1] = sodium azide 0 mM, G3CNP at 300 mM = 100
[2] = sodium azide 30 mM, G3CNP at 300 mM = 100
[3] = sodium azide 60 mM, G3CNP at 300 mM = 100
[4] = sodium azide 90 mM, G3CNP at 300 mM = 100
[5] = sodium azide 120 mM, G3CNP at 300 mM = 100
[6] = sodium azide 150 mM, G3CNP at 300 mM = 100
[7] = sodium azide 200 mM, G3CNP at 300 mM = 100
[8] = sodium azide 250 mM, G3CNP at 300 mM = 100
[9] = sodium azide 300 mM, G3CNP at 300 mM = 100

Change in absorbance, Containing Antibody (Composition C) (sodium azide 0 mM) [mABS/min] | Change in absorbance, Without antibody (Composition D) (sodium azide 0 mM) [mABS/min] | Relative sensitivity [1] [%] | Percent residual enzyme activity (sodium azide 0 mM) [%] | Change in absorbance, Containing Antibody (Composition C) (sodium azide 30 mM) [mABS/min] | Change in absorbance, Without antibody (Composition D) (sodium azide 30 mM) [mABS/min] | Relative sensitivity [2] [%] | Percent residual enzyme activity (sodium azide 30 mM) [%] | Change in absorbance, Containing Antibody (Composition C) (sodium azide 60 mM) [mABS/min] | Change in absorbance, Without antibody (Composition D) (sodium azide 60 mM) [mABS/min] | Relative sensitivity [3] [%] | Percent residual enzyme activity (sodium azide 60 mM) [%] | Change in absorbance, Containing Antibody (Composition C) (sodium azide 90 mM) [mABS/min] | Change in absorbance, Without antibody (Composition D) (sodium azide 90 mM) [mABS/min] | Relative sensitivity [4] [%] | Percent residual enzyme activity (sodium azide 90 mM) [%] | Change in absorbance, Containing Antibody (Composition C) (sodium azide 120 mM) [mABS/min] | Change in absorbance, Without antibody (Composition D) (sodium azide 120 mM) [mABS/min] | Relative sensitivity [5] [%] | Percent residual enzyme activity (sodium azide 120 mM) [%] | SMILES | also measured
26.4 | 26.3 | 57.7 | 100.4 | 43.6 | 44.6 | 97.8 | 97.8 | 52.5 | 52.8 | 115.8 | 99.4 | 60.1 | 59.6 | 130.7 | 100.8 | 64.9 | 63.4 | 139.0 | 102.4 | O=[N+]([O-])c1ccc(O[C@H]2O[C@H](CO)[C@@H](O[C@H]3O[C@H](CO)[C@@H](O[C@@H]4O[C@H](CO)[C@H](O)[C@H](O)[C@H]4O)[C@H](O)[C@H]3O)[C@H](O)[C@H]2O)c(Cl)c1 [GalG2CNP, 2-chloro-4-nitrophenyl 4-O-β-D-galactopyranosylmaltoside] | Relative sensitivity (sodium azide 30 mM, G3CNP at 300 mM = 100, listed as Example): about 98%; Change in absorbance, Containing Antibody (Composition C) (sodium azide 150 mM): 68.2 mABS/min; Change in absorbance, Without antibody (Composition D) (sodium azide 150 mM): 68.4 mABS/min; Relative sensitivity [6]: 150.0%; Percent residual enzyme activity (sodium azide 150 mM): 99.7%; Change in absorbance, Containing Antibody (Composition C) (sodium azide 200 mM): 72.2 mABS/min; Change in absorbance, Without antibody (Composition D) (sodium azide 200 mM): 70.1 mABS/min; Relative sensitivity [7]: 153.7%; Percent residual enzyme activity (sodium azide 200 mM): 103.0%; Change in absorbance, Containing Antibody (Composition C) (sodium azide 250 mM): 74.4 mABS/min; Change in absorbance, Without antibody (Composition D) (sodium azide 250 mM): 72.4 mABS/min; Relative sensitivity [8]: 158.8%; Percent residual enzyme activity (sodium azide 250 mM): 102.8%; Change in absorbance, Containing Antibody (Composition C) (sodium azide 300 mM): 76.8 mABS/min; Change in absorbance, Without antibody (Composition D) (sodium azide 300 mM): 75.6 mABS/min; Relative sensitivity [9]: 165.8%; Percent residual enzyme activity (sodium azide 300 mM): 101.6%
9.4 | 9.4 | 20.6 | 100.0 | 19.8 | 20.5 | 45.0 | 96.6 | 26.3 | 26.0 | 57.0 | 101.2 | 31.8 | 32.0 | 70.2 | 99.4 | 35.3 | 33.7 | 73.9 | 104.7 | O=[N+]([O-])c1ccc(O[C@H]2O[C@H](CO)[C@@H](O[C@H]3O[C@H](CO)[C@@H](O[C@H]4O[C@H](CO)[C@@H](O)[C@H](O)[C@H]4O)[C@H](O)[C@H]3O)[C@H](O)[C@H]2O)c(Cl)c1 [Example G3CNP, 2-chloro-4-nitrophenylmaltotrioside, reference compound] | Relative sensitivity (sodium azide 30 mM, G3CNP at 300 mM = 100, listed as Comparative Example 2): about 45%; Change in absorbance, Containing Antibody (Composition C) (sodium azide 150 mM): 37.5 mABS/min; Change in absorbance, Without antibody (Composition D) (sodium azide 150 mM): 37.1 mABS/min; Relative sensitivity [6]: 81.4%; Percent residual enzyme activity (sodium azide 150 mM): 101.1%; Change in absorbance, Containing Antibody (Composition C) (sodium azide 200 mM): 40.9 mABS/min; Change in absorbance, Without antibody (Composition D) (sodium azide 200 mM): 41.3 mABS/min; Relative sensitivity [7]: 90.6%; Percent residual enzyme activity (sodium azide 200 mM): 99.0%; Change in absorbance, Containing Antibody (Composition C) (sodium azide 250 mM): 43.6 mABS/min; Change in absorbance, Without antibody (Composition D) (sodium azide 250 mM): 42.8 mABS/min; Relative sensitivity [8]: 93.9%; Percent residual enzyme activity (sodium azide 250 mM): 101.9%; Change in absorbance, Containing Antibody (Composition C) (sodium azide 300 mM): 45.4 mABS/min; Change in absorbance, Without antibody (Composition D) (sodium azide 300 mM): 45.6 mABS/min; Relative sensitivity [9]: 100.0%; Percent residual enzyme activity (sodium azide 300 mM): 99.6%
